# Assay results: patent publication US11969428B2, “Methods and pharmaceutical compositions for treating lymphoid malignancy” (priority 2011, dated 2024)
# How the values were obtained:
# [1] = test system: primary human T-ALL tumor cells; test: Primary T-ALL cell viability on MS5-DL1 stroma; type: cell-based; conditions: selective blockade of PI3Kδ
# Description: (§1) Cell proliferation of CCRF-CEM cells or shRNA transfected CCRF-CEM cells, in the presence or absence of appropriate drug, was followed by cell counting of samples in triplicate using a hemocytometer and trypan blue. For apoptosis determinations of untransfected or shRNA transfected CCRF-CEMs, cells were stained with APC-conjugated Annexin-V (BD Biosciences) in Annexin Binding Buffer (Miltyeni Biotec) and analyzed by flow cytometry. For primary T-ALL samples, cell viability was assessed using the BD Cell Viability kit (BD Biosciences) coupled with the use of fluorescent counting beads as previously described (Armstrong et al., 2009). For this, cells were plated with MS5-DL1 stroma cells, and after 72 hours following drug treatment cells were harvested and stained with an APC-conjugated anti-human CD45 followed by a staining with the above kit according to the manufacturer's instructions.
# Akt/PKB phosphorylation = test: TCR-induced Akt/PKB phosphorylation in thymocytes (Western blot); type: cell-based, mouse; conditions: p110γ−/− thymocytes; IC87114 10 μM
# Description: Cell lysates (from cell lines or thymocytes) were prepared on ice in M-PER Mammalian Protein Extraction reagent (Pierce) containing a cocktail of protease and phosphatase inhibitors (Swat et al., 2006). Equal amounts of total protein from lysates were subjected to SDS-PAGE, transferred to PVDF membrane (Immobilon-P, Millipore), and membranes probed by overnight incubation with appropriate primary antibodies. Bound antibodies were visualized with HRP-conjugated secondary antibodies and ECL chemistry (SuperPico West, Pierce).
# To assess the requirement for p110δ in TCR-induced phosphorylation of Akt/PBK, single-cell suspensions of thymocytes (1×10^8/mL) from PI3Kγ-deficient animals were incubated with the p110δ-specific inhibitor IC87114 (10 μM) or with vehicle control (DMSO) for 30 minutes before TCR cross-linking, as described for the Ca^2+ flux assay. Aliquots (100 μL) were collected at 0, 10, 30, and 60 minutes after TCR cross-linking, briefly centrifuged to pellet, and subsequently lysed with ice-cold M-Per (Pierce, Rockford, IL) (according to the manufacturer's recommendations) that contained a cocktail of phosphatase and protease inhibitors (Puri et al., 2005). Lysates were clarified by centrifugation (12,000 g for 15 minutes at 4° C.), and total and phosphorylated Akt/PBK were determined by Western blot analysis.
# CD4+CD8+ DP thymocytes = test: Fetal thymus organ culture, flow cytometry; type: cell-based, mouse; conditions: IC87114 10 μM, 1 week
# From the text: Thymus lobes were obtained from mouse embryos, with embryonic day 0 (EO) considered the day of vaginal plug detection. Fetal thymus organ cultures were used to compare the effects of pharmacologic blockade of p110δ activity on thymocyte development in WT, p110δ^−/−, and p110γ^−/− mice. Briefly, 3 to 4 intact thymi were placed on bare filter inserts (transwell, 3-μm pore size; Corning Costar, Cambridge, MA) and then were inserted into wells containing DMEM, 10% FCS supplemented with either p110δ-specific inhibitor IC87114 (10 μM) or vehicle control (DMSO), and incubated for 1 week at 37° C. in 5% CO2. Thymocyte differentiation was evaluated by flow cytometry.
# CCRF-CEM cells = test: Cell proliferation and apoptosis (cell counting, Annexin V); type: cell-based, human
# Description: as §1
# [2] = CCRF-CEM with p110γ shRNA knockdown, IC87114 10 μM
smiles,measurement,setting,value
"Cc1ccccc1-n1c(Cn2cnc3c(N)ncnc32)nc2cccc(C)c2c1=O [IC87114, reference compound]",viability of primary human T-ALL samples,[1],ineffective
same,phosphorylated form of Akt/PKB after TCR cross-linking,Akt/PKB phosphorylation,not detected
same,reduction in the population of CD4+CD8+ DP thymocytes,"CD4+CD8+ DP thymocytes; p110γ−/− day 14.5 fetal thymi, mean±SE",69.2%±2.7%
same,decrease in DP cells,CD4+CD8+ DP thymocytes; p110δ−/− or WT control fetal thymi,≤ 10%
same,proliferation and apoptosis,"CCRF-CEM cells; CCRF-CEM containing empty vector alone, IC87114",no major effect
same,apoptosis,CCRF-CEM cells; [2],promoted apoptosis
same,proliferation,CCRF-CEM cells; [2],prevented proliferation
